Measured values taken from ChEMBL document CHEMBL1201862, “PubChem BioAssay data set” (2004).
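Cultured in 96-well plates, cells were exposed to test compound for 48 hours across five concentrations. At the GI50, growth is halved.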 Calls of active or inactive are those of the source. Rule as the data show it: active = GI50 up to about 1.1 µM and inactive = higher. Where a SMILES comes first, the peptide text is derived from it. The star is where a group is joined. Fmoc = O=C(OCC1c2ccccc2-c2ccccc21)*; Boc = CC(C)(C)OC(=O)*

Columns and labels:
Experiment in all cases: DTP human tumour cell line panel, 48 h
A549 = test system: A549
HCT-116 = test system: HCT-116
DU-145 = test system: DU-145
HOP-92 = test system: HOP-92
IGROV-1 = test system: IGROV-1
RPMI-8226 = test system: RPMI-8226
TK-10 = test system: TK-10
SNB-19 = test system: SNB-19
K562 = test system: K562
HCT-15 = test system: HCT-15
SR = test system: SR
786-0 = test system: 786-0
NCI-H522 = test system: NCI-H522
SK-MEL-5 = test system: SK-MEL-5
OVCAR-8 = test system: OVCAR-8
SK-MEL-2 = test system: SK-MEL-2
SNB-75 = test system: SNB-75
COLO 205 = test system: COLO 205
SF-295 = test system: SF-295
U-251 = test system: U-251
MDA-MB-231 = test system: MDA-MB-231
SF-539 = test system: SF-539
SW-620 = test system: SW-620
CCRF-CEM = test system: CCRF-CEM
EKVX = test system: EKVX
Malme-3M = test system: Malme-3M
HCC 2998 = test system: HCC 2998
CAKI-1 = test system: CAKI-1
OVCAR-3 = test system: OVCAR-3
UACC-257 = test system: UACC-257
SN12C = test system: SN12C
OVCAR-4 = test system: OVCAR-4
MDA-N = test system: MDA-N
ACHN = test system: ACHN
UACC-62 = test system: UACC-62
NCI/ADR-RES = test system: NCI/ADR-RES
SK-MEL-28 = test system: SK-MEL-28
Hs-578T = test system: Hs-578T
SF-268 = test system: SF-268
LOX IMVI = test system: LOX IMVI
RXF 393 = test system: RXF 393
MDA-MB-435 = test system: MDA-MB-435
NCI-H226 = test system: NCI-H226
M14 = test system: M14
NCI-H460 = test system: NCI-H460
BT-549 = test system: BT-549
OVCAR-5 = test system: OVCAR-5
MOLT-4 = test system: MOLT-4
MCF7 = test system: MCF7
NCI-H23 = test system: NCI-H23
UO-31 = test system: UO-31
A498 = test system: A498
T47D = test system: T47D
HT-29 = test system: HT-29
PC-3 = test system: PC-3
KM12 = test system: KM12
HL-60 = test system: HL-60
HOP-62 = test system: HOP-62
SK-OV-3 = test system: SK-OV-3

Measured: GI50

CN(C)CCOc1ccc(-c2c(Oc3ccccc3)c(=O)oc3ccccc23)cc1
10.3 µM: HCT-15
active: CCRF-CEM 0.459 µM
inactive: A549 4.15 µM | HCT-116 4.83 µM | DU-145 13.8 µM | HOP-92 17.2 µM | IGROV-1 10.7 µM | RPMI-8226 14.1 µM | TK-10 13.6 µM | SNB-19 8.02 µM | K562 2.39 µM | SR 2.83 µM | 786-0 8.39 µM | NCI-H522 11.3 µM | SK-MEL-5 3.78 µM | OVCAR-8 15.6 µM | SK-MEL-2 13.4 µM | SNB-75 9.59 µM | COLO 205 11 µM | SF-295 4.42 µM | U-251 4.86 µM | MDA-MB-231 4.93 µM | SF-539 14.1 µM | SW-620 11.4 µM | EKVX 13.9 µM | Malme-3M 12.2 µM | HCC 2998 6.62 µM | CAKI-1 22.3 µM | OVCAR-3 12.4 µM | UACC-257 6.67 µM | SN12C 14 µM | OVCAR-4 27.2 µM | MDA-N 2.19 µM | ACHN 11.9 µM | UACC-62 13.3 µM | NCI/ADR-RES 11.2 µM | SK-MEL-28 12.4 µM | Hs-578T 17.8 µM | SF-268 12.8 µM | LOX IMVI 13.1 µM | RXF 393 3.08 µM | MDA-MB-435 4.89 µM | NCI-H226 16 µM | M14 2.23 µM | NCI-H460 13.5 µM | BT-549 13.6 µM | OVCAR-5 15 µM | MOLT-4 4.13 µM | MCF7 4.66 µM | NCI-H23 14.1 µM | UO-31 7.33 µM | A498 13.4 µM | T47D 12.7 µM | HT-29 12.5 µM | PC-3 9.93 µM | KM12 21.4 µM

CC(C)(C)OC(=O)NCCCCC(NC(=O)OCC1c2ccccc2-c2ccccc21)C(=O)N1CCCC1C(=O)NCC(N)=O (stereo not drawn) (Fmoc-Lys(Boc)-Pro-Gly-NH2; configuration not given here)
16.1 µM: HCT-15
inactive: HL-60 32.8 µM | A549 51.4 µM | HCT-116 36.6 µM | DU-145 > 100 µM | HOP-92 20.4 µM | IGROV-1 48.4 µM | RPMI-8226 50.7 µM | TK-10 > 100 µM | SNB-19 > 100 µM | K562 48.1 µM | SR 21.1 µM | 786-0 19.3 µM | SK-MEL-5 80.4 µM | OVCAR-8 66.5 µM | SK-MEL-2 > 100 µM | SNB-75 7.6 µM | COLO 205 28.4 µM | SF-295 78.3 µM | U-251 18.5 µM | MDA-MB-231 46.7 µM | SF-539 88.1 µM | SW-620 87.9 µM | CCRF-CEM 76.6 µM | EKVX 76.2 µM | Malme-3M 18.3 µM | HCC 2998 58.2 µM | CAKI-1 16.4 µM | OVCAR-3 45.1 µM | UACC-257 > 100 µM | SN12C 16.2 µM | OVCAR-4 23.2 µM | MDA-N 19.3 µM | HOP-62 89.1 µM | ACHN 17.9 µM | UACC-62 46 µM | NCI/ADR-RES 33.4 µM | SK-MEL-28 > 100 µM | Hs-578T > 100 µM | SF-268 95.5 µM | LOX IMVI 21.3 µM | RXF 393 61 µM | MDA-MB-435 27.6 µM | NCI-H226 > 100 µM | M14 35.1 µM | NCI-H460 20.3 µM | BT-549 66.2 µM | OVCAR-5 > 100 µM | MOLT-4 29.5 µM | MCF7 43.9 µM | NCI-H23 94.8 µM | UO-31 15.3 µM | SK-OV-3 2.17 µM | T47D 24.7 µM | HT-29 31.3 µM | PC-3 27.9 µM | KM12 20.7 µM

Clc1ccc(Cc2nc3ccccc3nc2-c2cccc(Br)c2)cc1
1.41 µM: HCT-15
active: HOP-92 0.243 µM | CCRF-CEM 1.07 µM
inactive: HL-60 2.84 µM | A549 17 µM | HCT-116 1.88 µM | DU-145 10.7 µM | IGROV-1 1.8 µM | RPMI-8226 1.64 µM | TK-10 13.7 µM | SNB-19 1.52 µM | K562 2.8 µM | SR 1.75 µM | 786-0 1.75 µM | NCI-H522 1.78 µM | SK-MEL-5 13.9 µM | OVCAR-8 2.92 µM | SK-MEL-2 4.67 µM | SNB-75 20.4 µM | COLO 205 3.17 µM | SF-295 16.1 µM | U-251 7.41 µM | MDA-MB-231 3.6 µM | SF-539 2.26 µM | SW-620 2.04 µM | EKVX 15.1 µM | Malme-3M 4.45 µM | HCC 2998 1.62 µM | CAKI-1 2.22 µM | OVCAR-3 2.33 µM | UACC-257 3.1 µM | SN12C 3.1 µM | OVCAR-4 2.18 µM | MDA-N 1.97 µM | HOP-62 17.9 µM | ACHN 1.91 µM | UACC-62 1.91 µM | NCI/ADR-RES 3.08 µM | Hs-578T 1.69 µM | SF-268 19.8 µM | LOX IMVI 1.97 µM | RXF 393 2.47 µM | MDA-MB-435 2.14 µM | NCI-H226 16.9 µM | M14 2.32 µM | NCI-H460 18.3 µM | BT-549 3.5 µM | OVCAR-5 4.19 µM | MOLT-4 2.22 µM | MCF7 3.17 µM | NCI-H23 13.5 µM | UO-31 1.87 µM | SK-OV-3 16.8 µM | T47D 1.87 µM | HT-29 2.5 µM | PC-3 1.92 µM | KM12 8.59 µM

COC(=O)C1(C(=O)OC)Cc2ccc(OC)cc2C2=C1C(=O)c1ccccc1C2=O
inactive: HL-60 2.24 µM | A549 14.9 µM | HCT-116 3.24 µM | DU-145 16.5 µM | HOP-92 2.69 µM | IGROV-1 2.77 µM | TK-10 18.4 µM | SNB-19 16.9 µM | K562 1.84 µM | SR 3.54 µM | 786-0 4.75 µM | NCI-H522 3.45 µM | SK-MEL-5 7.4 µM | OVCAR-8 2.4 µM | SK-MEL-2 5.7 µM | SNB-75 17.7 µM | COLO 205 20.3 µM | SF-295 3.77 µM | U-251 5.56 µM | MDA-MB-231 1.99 µM | SF-539 16.6 µM | SW-620 6.47 µM | CCRF-CEM 2.15 µM | EKVX 4.46 µM | Malme-3M 10.8 µM | HCC 2998 19.5 µM | UACC-257 2.48 µM | SN12C 4.42 µM | OVCAR-4 1.77 µM | MDA-N 1.83 µM | HOP-62 7.08 µM | ACHN 5.74 µM | UACC-62 1.85 µM | NCI/ADR-RES 2.69 µM | SK-MEL-28 17.1 µM | Hs-578T 8.93 µM | SF-268 6.67 µM | LOX IMVI 2.17 µM | MDA-MB-435 1.97 µM | NCI-H226 17.7 µM | M14 18.4 µM | NCI-H460 16.1 µM | BT-549 19.1 µM | OVCAR-5 6.01 µM | MOLT-4 1.53 µM | MCF7 2.55 µM | NCI-H23 6.62 µM | UO-31 3.69 µM | A498 18.3 µM | T47D 1.51 µM | HT-29 14.4 µM | PC-3 1.87 µM | KM12 6.85 µM
10.7 µM: HCT-15
active: CAKI-1 0.423 µM | OVCAR-3 0.282 µM

COC1=CC(=O)c2c(cc(COP(=O)(OCC3OC(n4cc(F)c(=O)[nH]c4=O)CC3O)N(C)CCCCCl)n2C)C1=O (stereo unspecified)
active: HL-60 0.195 µM | A549 < 0.01 µM | HCT-116 0.138 µM | DU-145 0.321 µM | HOP-92 0.137 µM | IGROV-1 0.479 µM | RPMI-8226 < 0.0237 µM | SNB-19 0.951 µM | SR < 0.01 µM | 786-0 0.186 µM | NCI-H522 0.495 µM | SK-MEL-5 0.0329 µM | OVCAR-8 0.0593 µM | SNB-75 < 0.0124 µM | SF-295 < 0.0132 µM | U-251 0.409 µM | SF-539 < 0.0118 µM | SW-620 0.141 µM | CCRF-CEM < 0.01 µM | HCC 2998 < 0.01 µM | CAKI-1 0.0102 µM | SN12C < 0.0248 µM | MDA-N 0.41 µM | HOP-62 0.0413 µM | ACHN < 0.01 µM | UACC-62 0.0736 µM | NCI/ADR-RES 0.678 µM | Hs-578T 0.0877 µM | SF-268 < 0.01 µM | LOX IMVI 0.0148 µM | RXF 393 0.0478 µM | MDA-MB-435 1.04 µM | NCI-H226 0.546 µM | M14 0.136 µM | NCI-H460 < 0.01 µM | MOLT-4 0.0527 µM | MCF7 < 0.01 µM | NCI-H23 0.142 µM | UO-31 0.0605 µM | T47D 0.991 µM | HT-29 0.233 µM | PC-3 0.173 µM
inactive: TK-10 1.81 µM | K562 1.98 µM | SK-MEL-2 17.7 µM | MDA-MB-231 3.82 µM | EKVX 3.86 µM | Malme-3M 2.42 µM | OVCAR-3 1.2 µM | UACC-257 18.5 µM | OVCAR-4 1.82 µM | BT-549 1.56 µM | OVCAR-5 7.45 µM | KM12 10 µM
7.55 µM: HCT-15
